Source: patent US9359346B2, “Benzamide derivative and use thereof” (VIVOZON, INC., priority 2011, dated 2016)
Where two headings read alike, the source gives them in different places.

What was measured:
[1] = system: neuropathic pain model (Chung model); experiment: Neuropathic pain model (Chung model, SNL), paw withdrawal threshold; format: in vivo, rat; details: for pain suppression efficacy, antagonist alone: single administration, ORG-25543 10 or 20 mg/kg, FIG. 25(a)
[2] = system: formalin model; experiment: Formalin pain model, licking and shaking; format: in vivo, rat; details: for pain relieving effect, antagonist alone: single administration, FIG. 26(a); for pain behavior (licking and shaking) induced by formalin: 12.5, 25 and 50 mg/kg, 5% formalin i.pl., FIGS. 23 and 24
[3] = molecular target: T1, GlyT2 (Rattus norvegicus, UniProt P58295); experiment: FLIPR membrane potential assay for GlyT2 target activity (T-rex-293-rGlyT2 cells); format: cell-based; details: read-out: GlyT2 % inhibition
T1 construct: expressed in transfected cells
T1 sequence (P58295 1-799): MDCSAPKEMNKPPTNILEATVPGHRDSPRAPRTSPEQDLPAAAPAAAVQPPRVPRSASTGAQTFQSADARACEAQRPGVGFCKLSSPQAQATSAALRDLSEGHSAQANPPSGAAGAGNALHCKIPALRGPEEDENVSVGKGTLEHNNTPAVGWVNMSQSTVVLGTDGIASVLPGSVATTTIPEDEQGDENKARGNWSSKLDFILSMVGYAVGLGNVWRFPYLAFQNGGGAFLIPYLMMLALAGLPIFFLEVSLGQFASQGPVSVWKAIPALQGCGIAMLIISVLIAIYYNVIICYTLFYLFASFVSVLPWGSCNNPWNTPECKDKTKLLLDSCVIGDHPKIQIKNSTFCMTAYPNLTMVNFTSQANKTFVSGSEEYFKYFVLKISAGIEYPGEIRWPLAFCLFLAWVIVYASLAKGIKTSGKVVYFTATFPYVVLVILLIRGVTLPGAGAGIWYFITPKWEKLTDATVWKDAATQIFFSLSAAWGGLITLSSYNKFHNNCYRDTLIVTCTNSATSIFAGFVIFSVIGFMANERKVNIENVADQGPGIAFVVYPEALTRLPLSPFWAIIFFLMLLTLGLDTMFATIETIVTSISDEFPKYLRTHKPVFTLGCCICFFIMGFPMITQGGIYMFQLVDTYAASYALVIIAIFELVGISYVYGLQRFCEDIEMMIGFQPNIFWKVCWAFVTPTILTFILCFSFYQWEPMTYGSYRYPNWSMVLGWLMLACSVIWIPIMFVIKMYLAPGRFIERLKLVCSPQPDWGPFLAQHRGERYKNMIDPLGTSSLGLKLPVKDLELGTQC
Experimental: GlyT2 (Glycine transporter type 2) is an electrogenic carrier associated with Na^+/Cl^− ion transportation, primarily distributed around the spinal cord part, and has an important role in the transfer of a pain signal in the spinal cord.
In order to identify the fact that the novel compound of the present invention has GlyT2 targeting activity, a membrane potential assay was performed. FLIPR Membrane Potential Assay is used to measure ion channel modulation caused by an increase or decrease in fluorescence signal due to variations of cellular membrane potential.
First, pcDNA4/TO vector encoding GlyT2 of the rat in HEK293 cell was transfected to prepare a stable recombinant cell line, i.e., T-rex-293-rGlyT2. A […] (Greiner #655090) coated with poly-D-lysine was prepared, and the above recombinant cells (T-rex-293-rGlyT2) were seeded at 3.2×10^4/well therein using a medium containing 15 μg/ml of tetracycline. After this, incubation was conducted at 37° C. for 48 hours under 5% CO2 conditions to express GlyT2. 10 ml of assay buffer (1×HBSS, 20 mM HEPES, pH 7.4) was added to a blue dye solution and sufficiently dissolved therein to prepare a membrane potential dye solution. After removing the medium from the well showing GlyT2 expression, the membrane potential dye solution was added to the well in an amount of 100 μl/well and incubated for 20 minutes.
According to the FLIPR Membrane Potential Assay kit's protocol, SoftMax Pro Software of FlexStation 3 software (Molecular Devices, US) was set up. An extent of GlyT2 expression was determined such that the extent of cellular membrane depolarization relative to an administered amount of glycine during glycine treatment is indicated in relative fluorescence units (RFU), and RFU (Max-Min) is calculated by subtracting the minimum value from the maximum value of RFU. After firstly treating 10 uM of the novel compound according to the present invention, glycine was treated and RFU (Max-Min) for glycine administration was determined. Then, with the determined result, the extent of depolarization inhibition (% inhibition) was assessed for each compound, compared to a positive control.
The positive control used herein was ORG25543 (500 nM) having strong inhibitory efficacy specific to GlyT2.
For GlyT2 inhibitory efficacy, the efficacy of the compound ORG25543 (500 nM) was defined as 100%. Similarly, for 5HT2A inhibitory efficacy, the efficacy of MDL11939 (100 nM) was defined as 100%. Therefore, the target inhibitory efficacy of each compound was indicated in a relative value compared to the above defined efficacy.

[4] = molecular target: 5HT2A (Homo sapiens, UniProt P28223); experiment: FLIPR calcium assay for 5HT2A target activity (transfected HEK293 cells); format: cell-based
[5] = system: serotonin-derived itching; experiment: Itching model, serotonin-derived itching; format: in vivo, rat; details: 50 mg/kg s.c.; serotonin 25 μg/50 μl intradermal; vs naloxone 5 mg/kg intraperitoneal
[6] = system: poly-L-arginine-derived itching; experiment: Itching model, poly-L-arginine-derived itching; format: in vivo, rat; details: 50 mg/kg s.c.; poly-L-arginine 200 μg/50 μl intradermal; vs naloxone 5 mg/kg intraperitoneal
[7] = HEK293, read-out: 5HT2A % inhibition
[8] = 10 uM compound, then glycine, relative to ORG25543 (500 nM) defined as 100%
[9] = subcutaneous 50 mg/kg or oral 100 mg/kg, gabapentin 55 to 70 mg/kg intraperitoneal, FIGS. 1 to 22

Chain of 5HT2A (P28223 whole entry, species assumed): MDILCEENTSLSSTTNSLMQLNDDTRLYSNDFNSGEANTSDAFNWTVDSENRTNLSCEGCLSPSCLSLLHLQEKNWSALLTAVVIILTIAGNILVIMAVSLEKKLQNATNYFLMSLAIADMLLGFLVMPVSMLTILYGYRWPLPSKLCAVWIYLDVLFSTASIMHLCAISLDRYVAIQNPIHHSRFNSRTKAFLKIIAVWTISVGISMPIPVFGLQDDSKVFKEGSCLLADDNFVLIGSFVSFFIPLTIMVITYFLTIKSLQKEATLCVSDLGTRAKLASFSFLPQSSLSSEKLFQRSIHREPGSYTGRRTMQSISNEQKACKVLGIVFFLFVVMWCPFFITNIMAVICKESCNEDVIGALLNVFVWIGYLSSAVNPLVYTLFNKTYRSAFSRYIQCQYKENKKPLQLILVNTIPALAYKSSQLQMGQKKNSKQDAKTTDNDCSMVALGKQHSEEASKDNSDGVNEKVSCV

Compound	pain suppression efficacy, antagonist alone [1]	pain relieving effect, antagonist alone [2]	inhibition at 10 µM [3] [%]	inhibition at 10 µM [4, 7] [%]	pain behavior (licking and shaking) induced by formalin [2]	itching behavior (number and duration of scratching) induced by serotonin [5]	itching behavior (number and duration of scratching) induced by poly-L-arginine [6]	inhibition at 10 µM [3, 8] [%]	analgesic efficacy compared to GBP positive control [1, 9]	other results
COc1cc(C(=O)NCC2(N(C)C)CCCC2)cc(OC)c1OCc1ccccc1 [ORG-25543, reference compound]	did not show pain suppression efficacy	no or very little pain relieving effect	–	–	–	–	–	–	–	pain suppression efficacy, antagonist alone ([1]; listed as ORG2553): no or very little pain relieving effect
CCCCOc1c(OC)cc(C(=O)NCC2(N(C)C)CCOCC2)cc1OC [VVZ-005]	–	–	101	61.2	suppressing pain behavior induced by formalin	suppressing itching behavior	suppressing itching behavior	–	–	analgesic efficacy compared to GBP positive control ([1]; rat, in vivo): analgesic efficacy substantially equal to 0 °C superior to GBP
CCCCOc1c(OC)cc(C(=O)NCC2(NC)CCOCC2)cc1OC [VVZ-068]	–	–	–	–	suppressing pain behavior induced by formalin	suppressing itching behavior	suppressing itching behavior	105	analgesic efficacy substantially equal to 0 °C superior to GBP	inhibition at 10 µM ([4]; HEK293, 10 uM compound, then serotonin, relative to MDL11939 (100 nM) defined as 100%, read-out: 5HT2A % inhibition): 69.1%
OC(c1ccccc1)C1CCN(CCc2ccccc2)CC1 (centres unmarked) [MDL 11,939, reference compound]	no or very little pain relieving effect	no or very little pain relieving effect	–	–	–	–	–	–	–	–
CCCCOc1c(OC)cc(C(=O)NCC(c2ccc(OC)cc2)N(C)C)cc1OC (centres unmarked) [VVZ-024]	–	–	–	70.5	–	–	–	96.7	analgesic efficacy substantially equal to 0 °C superior to GBP	–
CN(C)C1(CNC(=O)c2ccc(OCc3ccccc3)cc2)CCOCC1 [VVZ-038]	–	–	108	96.1	–	–	–	–	analgesic efficacy substantially equal to 0 °C superior to GBP	–
